Measurements from publication PMC2248166, “Quantitative peptide binding motifs for 19 human and mouse MHC class I molecules derived using positional scanning combinatorial peptide libraries” (Immunome Research, 2008).

How the values were obtained:
Type in all cases: binding
H-2 D^d = H-2 D^d (Mus musculus, UniProt P01900)
H-2 K^d = H-2 K^d (Mus musculus, UniProt P01902)
HLA B*5802 = HLA B*5802 (Homo sapiens, UniProt P01889, A329T/C349S/D201E/D98Y/E176V/E187L/E204Q/E69T/G107R/I218V/I90N/K202T/L105A/N104I/N87E/Q89R/Q94S/R106L/R155S/R180L/R86G/S101N/S121W/S35A/S48A/V127L/V306I/V36M/Y140S/Y91M)
HLA B*5101 = HLA B*5101 (Homo sapiens, UniProt P01889, A329T/A93T/A95T/C349S/D138N/D201E/D98Y/E187L/E204Q/E69T/G107R/I218V/K202T/L105A/L119W/N104I/Q94N/R106L/R155S/R180L/S101N/S121T/S35A/S48A/V306I/V36M/Y195H/Y91F)
HLA B*1501 = HLA B*1501 (Homo sapiens, UniProt P01889, A329T/A93T/A95T/C349S/D201E/D98Y/E187L/E204Q/E69M/E70A/K202T/N87E/Q94N/R155S/R180W/S121R/S35A/S48A/V306I/V36M/Y140S/Y91S); experiment: biochemical
HLA A*3001 = HLA A*3001 (Homo sapiens, UniProt P04439, D140H/D185E/E176W/F33S/G80R/H175R/K168Q/R138E/R41S); experiment: biochemical
HLA B*0801 = HLA B*0801 (Homo sapiens, UniProt P01889, A93T/A95T/D138N/E176V/E187T/K202T/Q94N/R180D/S35A/V36M/Y33D/Y91F); experiment: biochemical
HLA B*5801 = HLA B*5801 (Homo sapiens, UniProt P01889, A329T/C349S/D201E/D98Y/E176V/E187L/E204Q/E69T/G107R/I218V/I90N/K202T/L105A/L119I/N104I/N87E/Q89R/Q94S/R106L/R155S/R180L/R86G/S101N/S121R/S35A/S48A/T118I/V127L/V306I/V36M/Y140S/Y91M)
HLA B*1503 = HLA B*1503 (Homo sapiens, UniProt P01889, A329T/A93T/A95T/C349S/D201E/D98Y/E187L/E204Q/K202T/N87E/Q94N/R155S/R180L/S121R/S35A/V306I/V36M/Y140S/Y91S); experiment: biochemical
HLA B*5401 = HLA B*5401 (Homo sapiens, UniProt P01889, A329T/C349S/D138N/D201E/E176V/E187T/E204Q/E69G/I76V/K202T/L119W/R155S/R180L/S121T/S35A/S48A/V127L/V306I/V36M/Y140L)
HLA A*6802 = HLA A*6802 (Homo sapiens, UniProt P04439, A269V/D140Y/D185E/E176V/E277Q/E87N/F33Y/G231S/I121R/I166T/I218V/L180W/L300P/L318F/N151K/P208A/P217A/Q86R/R138H/R169H/S129P/T345S/V36M)
HLA B*3501 = HLA B*3501 (Homo sapiens, UniProt P01889, A329T/A93T/A95T/C349S/D201E/D98Y/E176V/E187L/E204Q/E69T/I218V/K202T/L119I/Q94N/R155S/R180L/S121R/S35A/S48A/T118I/V127L/V306I/V36M/Y140S/Y91F)
HLA A*3201 = HLA A*3201 (Homo sapiens, UniProt P04439, A270S/D101S/D185E/E176V/E277Q/F133L/G103R/G107R/G231S/H175R/I121M/I218V/I322F/K168Q/L105A/L300P/L318F/M331R/P208A/P217A/Q94H/R106L/R138Q/S129P/T104I/T323A/T345S/V100E/V321M/V358M); experiment: biochemical
H-2 K^k = H-2 K^k (Mus musculus, UniProt P04223)
H-2 D^b = H-2 D^b (Mus musculus, UniProt P01899)
HLA B*5301 = HLA B*5301 (Homo sapiens, UniProt P01889, A329T/A93T/A95T/C349S/D201E/D98Y/E176V/E187L/E204Q/E69T/G107R/I218V/K202T/L105A/L119I/N104I/Q94N/R106L/R155S/R180L/S101N/S121R/S35A/S48A/T118I/V127L/V306I/V36M/Y140S/Y91F)

H-2 D^d, sequence (P01900 whole entry, looked up): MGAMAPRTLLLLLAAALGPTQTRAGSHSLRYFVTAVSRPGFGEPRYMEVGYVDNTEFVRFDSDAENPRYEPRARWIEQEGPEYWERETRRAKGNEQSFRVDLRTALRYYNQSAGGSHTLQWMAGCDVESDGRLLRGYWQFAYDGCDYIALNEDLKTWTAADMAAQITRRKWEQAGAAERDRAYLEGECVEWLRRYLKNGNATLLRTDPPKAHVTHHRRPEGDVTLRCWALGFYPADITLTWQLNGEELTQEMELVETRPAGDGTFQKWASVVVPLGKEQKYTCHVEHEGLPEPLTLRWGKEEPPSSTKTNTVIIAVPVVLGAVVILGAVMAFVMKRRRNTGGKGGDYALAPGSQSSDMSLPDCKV
H-2 K^d, sequence (P01887 21-119): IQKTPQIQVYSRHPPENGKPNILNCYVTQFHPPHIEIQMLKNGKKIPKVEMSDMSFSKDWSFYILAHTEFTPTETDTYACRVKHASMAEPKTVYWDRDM
H-2 K^d, sequence (P01902 22-368): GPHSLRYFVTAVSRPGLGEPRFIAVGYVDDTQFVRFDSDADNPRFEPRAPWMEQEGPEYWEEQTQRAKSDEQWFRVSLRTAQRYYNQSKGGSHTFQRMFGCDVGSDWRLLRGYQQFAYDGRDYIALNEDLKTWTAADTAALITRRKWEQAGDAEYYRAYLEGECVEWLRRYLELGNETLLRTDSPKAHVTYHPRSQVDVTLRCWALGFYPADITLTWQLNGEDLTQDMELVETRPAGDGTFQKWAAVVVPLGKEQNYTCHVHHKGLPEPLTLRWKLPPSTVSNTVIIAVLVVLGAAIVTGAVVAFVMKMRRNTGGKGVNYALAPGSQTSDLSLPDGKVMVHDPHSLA
H-2 K^k, sequence (P01887 21-119): as the sequence (P01887 21-119) above
H-2 K^k, sequence (P04223 22-369): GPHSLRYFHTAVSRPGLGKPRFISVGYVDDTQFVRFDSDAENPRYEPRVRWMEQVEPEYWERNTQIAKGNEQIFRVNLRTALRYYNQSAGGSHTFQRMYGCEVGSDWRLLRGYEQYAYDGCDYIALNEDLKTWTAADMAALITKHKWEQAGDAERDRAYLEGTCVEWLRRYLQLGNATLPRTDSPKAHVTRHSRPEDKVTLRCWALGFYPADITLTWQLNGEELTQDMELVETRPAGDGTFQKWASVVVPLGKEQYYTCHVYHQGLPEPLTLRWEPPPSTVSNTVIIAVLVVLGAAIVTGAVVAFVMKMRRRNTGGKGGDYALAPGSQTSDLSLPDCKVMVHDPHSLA
H-2 D^b, sequence (P01887 21-119): as the sequence (P01887 21-119) above
H-2 D^b, sequence (P01899 25-362): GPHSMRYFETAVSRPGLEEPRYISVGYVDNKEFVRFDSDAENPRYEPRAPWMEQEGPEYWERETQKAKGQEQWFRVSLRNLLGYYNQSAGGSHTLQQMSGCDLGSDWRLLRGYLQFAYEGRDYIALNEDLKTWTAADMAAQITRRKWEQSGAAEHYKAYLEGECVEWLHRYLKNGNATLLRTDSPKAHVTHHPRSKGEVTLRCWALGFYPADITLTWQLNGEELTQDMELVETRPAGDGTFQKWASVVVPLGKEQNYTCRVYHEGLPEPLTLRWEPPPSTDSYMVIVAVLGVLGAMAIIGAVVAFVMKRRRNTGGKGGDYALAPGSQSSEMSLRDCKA

Row | Sequence | Normalized average relative binding affinity(ARB) (H-2 D^d) | Normalized average relative binding affinity(ARB) (H-2 K^d) | Normalized average relative binding affinity(ARB) (HLA B*5802) | Normalized average relative binding affinity(ARB) (HLA B*5101) | Normalized average relative binding affinity(ARB) (HLA B*1501) | Normalized average relative binding affinity(ARB) (HLA A*3001) | Normalized average relative binding affinity(ARB) (HLA B*0801) | Normalized average relative binding affinity(ARB) (HLA B*5801) | Normalized average relative binding affinity(ARB) (HLA B*1503) | Normalized average relative binding affinity(ARB) (HLA B*5401) | Normalized average relative binding affinity(ARB) (HLA A*6802) | Normalized average relative binding affinity(ARB) (HLA B*3501) | Normalized average relative binding affinity(ARB) (HLA A*3201) | Normalized average relative binding affinity(ARB) (H-2 K^k) | Normalized average relative binding affinity(ARB) (H-2 D^b) | Normalized average relative binding affinity(ARB) (HLA B*5301)
1 | XXXXXIXXX [3064.0108] | 0.46 | 0.36 | 0.072 | 0.74 | 0.53 | 0.27 | 0.048 | 0.67 | 0.41 | 0.81 | 0.38 | 0.28 | 0.83 | 0.55 | 0.77 | 0.41
2 | XXXXXKXXX [3064.0109] | 0.30 | 0.36 | 0.21 | 0.54 | 0.28 | 0.10 | 0.073 | 0.13 | 0.26 | 0.62 | 0.24 | 0.14 | 0.30 | 0.34 | 0.51 | 0.15
3 | XXXXXLXXX [3064.0110] | 0.54 | 0.34 | 0.31 | 0.55 | 0.12 | 0.28 | 0.061 | 0.49 | 0.37 | 0.21 | 0.16 | 0.29 | 0.33 | 0.25 | 0.64 | 0.18
4 | XXXXXMXXX [3064.0111] | 0.48 | 0.31 | 0.24 | 0.52 | 0.44 | 0.18 | 0.031 | 0.41 | 0.43 | 0.43 | 0.14 | 0.18 | 0.44 | 0.36 | 0.52 | 0.23
5 | XXXXXNXXX [3064.0112] | 0.39 | 0.22 | 1.0 | 0.40 | 0.26 | 0.13 | 0.039 | 0.027 | 0.0067 | 0.29 | 0.45 | 0.16 | 0.73 | 0.32 | 0.56 | 0.13
6 | XXXXXPXXX [3064.0113] | 0.094 | 0.15 | 0.39 | 0.067 | 0.11 | 0.19 | 0.039 | 0.20 | 0.47 | 0.15 | 0.57 | 0.14 | 0.27 | 0.38 | 0.23 | 0.15
7 | XXXXXQXXX [3064.0114] | 0.51 | 0.19 | 0.46 | 0.39 | 0.21 | 0.21 | 0.031 | 0.57 | 0.53 | 0.11 | 0.085 | 0.12 | 0.15 | 0.12 | 0.55 | 0.13
8 | XXXXXRXXX [3064.0115] | 0.42 | 1.0 | 0.36 | 0.27 | 0.13 | 0.21 | 0.15 | 0.25 | 0.51 | 0.11 | 0.43 | 0.088 | 0.36 | 0.39 | 0.50 | 0.095
